These compounds were tested against T1, human KDR enzyme (Homo sapiens, UniProt P35968) (assay: Phosphorylation of the substrate PLCγ by the enzyme KDR in vitro (flashplate technique)). Conditions: Table VII, degrees of activity by IC50 range; read-out: Activity.
T1 construct: The cytoplasmic domain of human KDR enzyme is cloned in the form of a GST fusion; GST; made in house; host or cells: SF21 insect cells (baculovirus, pFastBac)
T1 sequence (P35968 786-1356 limits assumed): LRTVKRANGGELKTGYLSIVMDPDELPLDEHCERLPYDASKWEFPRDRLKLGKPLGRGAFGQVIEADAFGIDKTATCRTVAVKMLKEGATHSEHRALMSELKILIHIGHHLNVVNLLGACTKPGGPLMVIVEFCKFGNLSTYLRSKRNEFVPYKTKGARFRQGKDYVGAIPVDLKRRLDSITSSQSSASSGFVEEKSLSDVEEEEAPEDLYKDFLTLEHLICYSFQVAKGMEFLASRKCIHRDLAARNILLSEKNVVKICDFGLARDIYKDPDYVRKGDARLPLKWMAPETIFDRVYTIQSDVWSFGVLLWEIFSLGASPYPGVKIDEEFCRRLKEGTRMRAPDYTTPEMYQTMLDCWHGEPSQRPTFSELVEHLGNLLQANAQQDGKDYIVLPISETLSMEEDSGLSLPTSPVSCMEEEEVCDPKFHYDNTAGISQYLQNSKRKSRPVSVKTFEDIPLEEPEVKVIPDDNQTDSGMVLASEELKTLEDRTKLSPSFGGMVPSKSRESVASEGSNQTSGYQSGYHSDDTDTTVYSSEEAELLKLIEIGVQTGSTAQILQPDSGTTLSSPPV
Type: biochemical
Protocol: The inhibitory effect of the compounds is determined in a test of phosphorylation of a substrate by the enzyme KDR in vitro by the flasplate technique (96-well plate, NEN). The cytoplasmic domain of human KDR enzyme is cloned in the form of a GST fusion into the baculovirus expression vector pFastBac. The protein is expressed in the SF21 cells and purified to about 60% homogeneity.
The kinase activity of KDR is measured in 20 mM MOPS, 10 mM MgCl2, 10 mM MnCl2, 1 mM DTT, 2.5 mM EGTA, 10 mM β-glycerophosphate, pH 7.2 in the presence of 10 mM MgCl2, 100 μM Na3VO4, 1 mM NaF. 10 μl of the compound are added to 70 μl of kinase buffer containing 100 ng of KDR enzyme at 4° C. The reaction is initiated by adding 20 μl of solution containing 2 μg of substrate (fragment SH2-SH3 of PLCγ expressed in the form of a GST fusion protein), 2 μCi γ33P[ATP] and 2 μM cold ATP. After incubating for 1 h at 37° C., the reaction is quenched by adding 1 volume (100 μl) of 200 mM EDTA. The incubation buffer is removed and the wells are washed three times with 300 μl of PBS. The radioactivity is measured in each well using a Top Count NXT instrument (Packard).
Background noise is determined by measuring the radio-activity in wells in quadruplet containing radioactive ATP and the substrate alone.
An activity control is measured in wells in quadruplet containing all the reagents (γ33P-[ATP], KDR and the substrate PLCγ) and in the absence of compound.
The inhibition of the KDR activity with the compound of the invention is expressed as a percentage of inhibition of the control activity determined in the absence of compound.
The compound SU5614 (Calbiochem) (1 μM) is included in each plate as inhibition control.
The IC50 values for the compounds are calculated by plotting the dose-response curves. The IC50 corresponds to the concentration of compound that induces a 50% inhibition of the kinase activity.
For `O=C(NCc1ccsc1)c1ccc2[nH]c(-c3n[nH]c4ccccc34)nc2c1` [Example 68, 2-(1H-Indazol-3-yl)-1H-benzoimidazole-5-carboxylic acid (thiophen-3-ylmethyl)-amide], the IC50 was 0.3 to 3 µM.
`Cc1cc(C)cc(CNC(=O)c2ccc3[nH]c(-c4n[nH]c5ccccc45)nc3c2)c1` [Example 69, 2-(1H-Indazol-3-yl)-1H-benzoimidazole-5-carboxylic acid 3,5-dimethyl-benzylamide] gave an IC50 of 0.3 to 3 µM.
`Cn1c(CNC(=O)c2ccc3[nH]c(-c4n[nH]c5ccccc45)nc3c2)nc2ccccc21` [Example 70, 2-(1H-Indazol-3-yl)-1H-benzoimidazole-5-carboxylic acid (1-methyl-1H-benzoimidazol-2-ylmethyl)-amide] showed an IC50 of 0.3 to 3 µM.
In the case of `Cc1cccc(CNC(=O)c2ccc3[nH]c(-c4n[nH]c5ccccc45)nc3c2)c1` [Example 71, 2-(1H-Indazol-3-yl)-1H-benzoimidazole-5-carboxylic acid 3-methyl-benzylamide], the IC50 is reported as < 0.3 µM.
In the case of `O=C(NCc1cccc(Cl)c1)c1ccc2[nH]c(-c3n[nH]c4ccccc34)nc2c1` [Example 72, 2-(1H-Indazol-3-yl)-1H-benzoimidazole-5-carboxylic acid 3-chloro-benzylamide], the IC50 is reported as < 0.3 µM.
`NS(=O)(=O)c1ccc(CNC(=O)c2cccc3nc(-c4n[nH]c5ccccc45)[nH]c23)cc1` [Example 73, 2-(1H-Indazol-3-yl)-3H-benzoimidazole-4-carboxylic acid 4-sulfamoyl-benzylamide] showed an IC50 of 0.3 to 3 µM.
With `CCOCCCNC(=O)c1cccc2nc(-c3n[nH]c4ccccc34)[nH]c12` [Example 74, 2-(1H-Indazol-3-yl)-3H-benzoimidazole-4-carboxylic acid (3-ethoxy-propyl)-amide] the IC50 was > 3 µM.
With `O=C(NCc1ccc(Br)cc1)c1cccc2nc(-c3n[nH]c4ccccc34)[nH]c12` [Example 75, 2-(1H-Indazol-3-yl)-3H-benzoimidazole-4-carboxylic acid 4-bromo-benzylamide] the IC50 was > 3 µM.
With `O=C(NCc1cccc2ccccc12)c1cccc2nc(-c3n[nH]c4ccccc34)[nH]c12` [Example 76, 2-(1H-Indazol-3-yl)-3H-benzoimidazole-4-carboxylic acid (naphthalen-1-ylmethyl)-amide] the IC50 was > 3 µM.
In the case of `O=C(NCc1cccs1)c1cccc2nc(-c3n[nH]c4ccccc34)[nH]c12` [Example 77, 2-(1H-Indazol-3-yl)-3H-benzoimidazole-4-carboxylic acid (thiophen-2-ylmethyl)-amide], the IC50 is reported as > 3 µM.
`CN(C)c1ccc(CNC(=O)c2cccc3nc(-c4n[nH]c5ccccc45)[nH]c23)cc1` [Example 78, 2-(1H-Indazol-3-yl)-3H-benzoimidazole-4-carboxylic acid 4-dimethylamino-benzylamide] was tested, and the IC50 was > 3 µM.
`O=C(NCc1ccc([N+](=O)[O-])cc1)c1cccc2nc(-c3n[nH]c4ccccc34)[nH]c12` [Example 79, 2-(1H-Indazol-3-yl)-3H-benzoimidazole-4-carboxylic acid 4-nitro-benzylamide] was tested, and the IC50 was > 3 µM.
`O=C(NCc1cccnc1)c1cccc2nc(-c3n[nH]c4ccccc34)[nH]c12` [Example 80, 2-(1H-Indazol-3-yl)-3H-benzoimidazole-4-carboxylic acid (pyridin-3-ylmethyl)-amide] gave an IC50 of 0.3 to 3 µM.
`O=C(NCc1cccc(Br)c1)c1cccc2nc(-c3n[nH]c4ccccc34)[nH]c12` [Example 81, 2-(1H-Indazol-3-yl)-3H-benzoimidazole-4-carboxylic acid 3-bromo-benzylamide] was tested, and the IC50 was > 3 µM.
In the case of `COc1cccc(CNC(=O)c2cccc3nc(-c4n[nH]c5ccccc45)[nH]c23)c1` [Example 82, 2-(1H-Indazol-3-yl)-3H-benzoimidazole-4-carboxylic acid 3-methoxy-benzylamide], the IC50 is reported as 0.3 to 3 µM.
For `O=C(NCc1csc2ccccc12)c1cccc2nc(-c3n[nH]c4ccccc34)[nH]c12` [Example 83, 2-(1H-Indazol-3-yl)-3H-benzoimidazole-4-carboxylic acid (benzo[b]thiophen-3-ylmethyl)-amide], the IC50 was > 3 µM.
With `O=C(NCc1ccc(Oc2ccccc2)cc1)c1cccc2nc(-c3n[nH]c4ccccc34)[nH]c12` [Example 84, 2-(1H-Indazol-3-yl)-3H-benzoimidazole-4-carboxylic acid 4-phenoxy-benzylamide] the IC50 was > 3 µM.
For `O=C(NCc1cccc(OC(F)(F)F)c1)c1cccc2nc(-c3n[nH]c4ccccc34)[nH]c12` [Example 85, 2-(1H-Indazol-3-yl)-3H-benzoimidazole-4-carboxylic acid 3-trifluoromethoxy-benzylamide], the IC50 was > 3 µM.
`O=C(NCc1ccc(Cl)nc1)c1cccc2nc(-c3n[nH]c4ccccc34)[nH]c12` [Example 86, 2-(1H-Indazol-3-yl)-3H-benzoimidazole-4-carboxylic acid (6-chloro-pyridin-3-ylmethyl)-amide] was tested, and the IC50 was > 3 µM.
`O=C(NCc1ccc2c(c1)CCO2)c1cccc2nc(-c3n[nH]c4ccccc34)[nH]c12` [Example 87, 2-(1H-Indazol-3-yl)-3H-benzoimidazole-4-carboxylic acid (2,3-dihydro-benzofuran-5-ylmethyl)-amide] was tested, and the IC50 was > 3 µM.
For `O=C(NCc1cccc(C(F)(F)F)c1)c1cccc2nc(-c3n[nH]c4ccccc34)[nH]c12` [Example 88, 2-(1H-Indazol-3-yl)-3H-benzoimidazole-4-carboxylic acid 3-trifluoromethyl-benzylamide], the IC50 was > 3 µM.
For `CSc1ccccc1CNC(=O)c1cccc2nc(-c3n[nH]c4ccccc34)[nH]c12` [Example 89, 2-(1H-Indazol-3-yl)-3H-benzoimidazole-4-carboxylic acid 2-methylsulfanyl-benzylamide], the IC50 was < 0.3 µM.
Compound `O=C(NCc1ccoc1)c1cccc2nc(-c3n[nH]c4ccccc34)[nH]c12` [Example 90, 2-(1H-Indazol-3-yl)-3H-benzoimidazole-4-carboxylic acid (furan-3-ylmethyl)-amide] has an IC50 of 0.3 to 3 µM.
For `O=C(NCc1ccccc1[N+](=O)[O-])c1cccc2nc(-c3n[nH]c4ccccc34)[nH]c12` [Example 91, 2-(1H-Indazol-3-yl)-3H-benzoimidazole-4-carboxylic acid 2-nitro-benzylamide], the IC50 was 0.3 to 3 µM.
`Cc1cc(C)cc(CNC(=O)c2cccc3nc(-c4n[nH]c5ccccc45)[nH]c23)c1` [Example 92, 2-(1H-Indazol-3-yl)-3H-benzoimidazole-4-carboxylic acid 3,5-dimethyl-benzylamide] showed an IC50 of 0.3 to 3 µM.
With `O=C(NCc1cccc(Cl)c1)c1cccc2nc(-c3n[nH]c4ccccc34)[nH]c12` [Example 93, 2-(1H-Indazol-3-yl)-3H-benzoimidazole-4-carboxylic acid 3-chloro-benzylamide] the IC50 was > 3 µM.
Work on `O=C(Nc1ccccc1)c1cccc2nc(-c3n[nH]c4ccccc34)[nH]c12` [Example 94, 2-(1H-Indazol-3-yl)-3H-benzoimidazole-4-carboxylic acid phenylamide] yielded an IC50 of 0.3 to 3 µM.
In the case of `O=C(NCc1ccccc1)c1cccc2nc(-c3n[nH]c4ccccc34)[nH]c12` [Example 95, 2-(1H-Indazol-3-yl)-3H-benzoimidazole-4-carboxylic acid benzylamide], the IC50 is reported as > 3 µM.
In the case of `O=C(NCCc1ccccc1)c1cccc2nc(-c3n[nH]c4ccccc34)[nH]c12` [Example 96, 2-(1H-Indazol-3-yl)-3H-benzoimidazole-4-carboxylic acid phenethyl-amide], the IC50 is reported as > 3 µM.
In the case of `c1ccc(-c2ccc3nc(-c4[nH]nc5ccccc45)[nH]c3c2)cc1` [Example 97, 3-(6-Phenyl-1H-benzimidazol-2-yl)-2H-indazole], the IC50 is reported as > 3 µM.
In the case of `Clc1ccc(-c2ccc3nc(-c4[nH]nc5ccccc45)[nH]c3c2)c(Cl)c1` [Example 98, 3-[6-(2,4-Dichloro-phenyl)-1H-benzoimidazol-2-yl]-2H-indazole], the IC50 is reported as > 3 µM.
`c1ccc2c(-c3ccc4nc(-c5[nH]nc6ccccc56)[nH]c4c3)cccc2c1` [Example 99, 3-(6-Naphthalen-1-yl-1H-benzoimidazol-2-yl)-2H-indazole] was tested, and the IC50 was > 3 µM.
With `Fc1ccc(-c2ccc3nc(-c4[nH]nc5ccccc45)[nH]c3c2)cc1` [Example 100, 3-[6-(4-Fluoro-phenyl)-1H-benzoimidazol-2-yl]-2H-indazole] the IC50 was 0.3 to 3 µM.
`Clc1ccc(-c2ccc3nc(-c4[nH]nc5ccccc45)[nH]c3c2)cc1` [Example 101, 3-[6-(4-Chloro-phenyl)-1H-benzoimidazol-2-yl]-2H-indazole] was tested, and the IC50 was > 3 µM.
`COc1ccc(-c2ccc3nc(-c4[nH]nc5ccccc45)[nH]c3c2)cc1` [Example 102, 3-[6-(4-Methoxy-phenyl)-1H-benzoimidazol-2-yl]-2H-indazole] gave an IC50 of 0.3 to 3 µM.
`Fc1ccc(-c2ccc3nc(-c4[nH]nc5ccccc45)[nH]c3c2)cc1Cl` [Example 103, 3-[6-(3-Chloro-4-fluoro-phenyl)-1H-benzoimidazol-2-yl]-2H-indazole] gave an IC50 of 0.3 to 3 µM.

Reference: patent publication US20050009894A1 (Aventis Pharma S.A., priority 2001, published 2005)
